As a reminder, the EC50 is the concentration at which the effect is half-maximal. For orientation: IC50 means the point on the concentration scale where inhibition reaches its midpoint. Read a high IC50 as weaker potency.

Our source for the EC50 and IC50 values is patent publication US12391679B2, “Benzamide-substituted bicyclic imidazo- and pyrazolo-fused -pyridine, -pyrimide, and -pyridazine compounds for treatment of inflammatory diseases” (ONCO3R Therapeutics BV, priority 2019, dated 2025).

Read-outs that look alike come from different tables or passages of the source.

Assay [1] relates to LPS-induced TNFα in monocytes. Description: Monocytes assay: LPS-triggered TNFα (ELISA). Format: cell-based, human. The following applies: LPS-triggered TNFα inhibition. The essentials: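 CD14+ monocytes were magnetically isolated from human buffy-coat PBMCs, preincubated with compound 1 h at 37 °C (0.2% DMSO), then stimulated with LPS at 200 ng/mL for 4 h. Supernatant TNFα was measured by luminescent sandwich ELISA; percentage inhibition was calculated against controls for each concentration.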
For orientation: An ELISA detects its analyte on a solid surface through an enzyme-linked reagent.

Assay [2] concerns the target T1, SIK3 (Homo sapiens, UniProt Q9Y2K2).
T1 construct: purchased SignalChem S12-11G-100
Nature of the assay: ADP-Glo kinase assay, SIK3. Format: biochemical. The essentials: (§1)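 Luminescent ADP-formation read-out: enzyme–substrate mix + ATP, 120 min RT; ATP depletion 40 min RT; ADP→ATP conversion with luciferase/luciferin 30 min RT. Controls: 1% DMSO (negative), 10 μM staurosporine final (positive).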

For assay [3], the target named is T2, SIK2 (Homo sapiens, UniProt Q9H0K1).
T2 construct: purchased ThermoFisher Scientific PV4792
T2 sequence (Q9H0K1 whole entry): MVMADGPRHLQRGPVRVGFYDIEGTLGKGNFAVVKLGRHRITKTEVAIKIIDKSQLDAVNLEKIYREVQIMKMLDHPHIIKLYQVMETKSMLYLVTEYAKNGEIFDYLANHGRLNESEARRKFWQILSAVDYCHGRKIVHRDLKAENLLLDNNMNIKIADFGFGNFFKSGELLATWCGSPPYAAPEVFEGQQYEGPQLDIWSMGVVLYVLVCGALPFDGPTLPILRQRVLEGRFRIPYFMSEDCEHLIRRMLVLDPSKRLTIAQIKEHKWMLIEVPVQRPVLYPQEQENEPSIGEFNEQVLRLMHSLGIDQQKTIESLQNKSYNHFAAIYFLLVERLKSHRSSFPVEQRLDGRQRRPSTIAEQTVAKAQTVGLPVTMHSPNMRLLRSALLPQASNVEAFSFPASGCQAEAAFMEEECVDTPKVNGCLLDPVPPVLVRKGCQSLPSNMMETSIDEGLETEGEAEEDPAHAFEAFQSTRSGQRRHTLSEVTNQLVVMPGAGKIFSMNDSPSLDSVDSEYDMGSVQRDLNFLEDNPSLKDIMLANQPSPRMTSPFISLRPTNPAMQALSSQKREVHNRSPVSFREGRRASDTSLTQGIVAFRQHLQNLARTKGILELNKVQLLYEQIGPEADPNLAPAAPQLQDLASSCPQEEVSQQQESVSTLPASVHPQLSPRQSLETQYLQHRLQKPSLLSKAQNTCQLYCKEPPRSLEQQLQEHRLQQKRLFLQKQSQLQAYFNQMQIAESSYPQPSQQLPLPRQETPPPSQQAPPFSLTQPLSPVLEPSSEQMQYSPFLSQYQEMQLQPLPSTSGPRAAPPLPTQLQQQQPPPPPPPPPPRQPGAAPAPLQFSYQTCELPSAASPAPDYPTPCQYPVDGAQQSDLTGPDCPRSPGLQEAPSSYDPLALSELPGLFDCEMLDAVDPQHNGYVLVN
Description: ADP-Glo kinase assay, SIK2. Type of assay: biochemical. The essentials:
as §1

[4] abbreviates: ADP-Glo, AMARA 45 μM, 5 μM ATP, 120 min, average IC50.

T1 sequence (Q9Y2K2 59-365 limits assumed): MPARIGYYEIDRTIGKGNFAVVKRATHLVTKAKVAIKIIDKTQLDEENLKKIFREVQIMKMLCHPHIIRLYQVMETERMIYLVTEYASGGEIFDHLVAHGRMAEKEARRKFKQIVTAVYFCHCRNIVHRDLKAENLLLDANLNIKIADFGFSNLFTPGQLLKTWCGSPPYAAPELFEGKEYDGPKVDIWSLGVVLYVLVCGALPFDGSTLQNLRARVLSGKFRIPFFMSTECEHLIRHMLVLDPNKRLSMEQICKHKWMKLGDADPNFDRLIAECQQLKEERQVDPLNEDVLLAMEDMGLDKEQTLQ

Compound `COc1cc(-c2cnc3cc([C@@](C)(O)C4CC4)ccn23)cc(OC(F)F)c1C(=O)NC1CC1` (single isomer, unassigned) [Cpd 162, N-cyclopropyl-4-[7-(1-cyclopropyl-1-hydroxy-ethyl)imidazo[1,2-a]pyridin-3-yl]-2-(difluoromethoxy)-6-methoxy-benzamide] returned an EC50 in assay [1] (Homo sapiens, Monocyte) of 100 to 1000 nM. The IC50 in assay [2] is 10 to 100 nM; in assay [3] it was more than 500 nM.
`COc1cc(-c2cnc3cc([C@@](C)(O)C4CC4)ccn23)cc(OC(F)F)c1C(=O)NC1CC1` (single isomer, unassigned) [Cpd 163, N-cyclopropyl-4-[7-(1-cyclopropyl-1-hydroxy-ethyl)imidazo[1,2-a]pyridin-3-yl]-2-(difluoromethoxy)-6-methoxy-benzamide]: the EC50 in assay [1] was in the range of 100 to 1000 nM. In addition, the IC50 was 10 to 100 nM in assay [2] (setting [4]) and more than 500 nM in assay [3] (setting [4]).
In assay [1] (Homo sapiens, Monocyte), `CC[C@](C)(O)c1ccn2c(-c3cc(OC)c(C(=O)NC4CC4)c(OC(F)F)c3)cnc2c1` (single isomer, unassigned) [Cpd 164, N-cyclopropyl-2-(difluoromethoxy)-4-[7-(1-hydroxy-1-methyl-propyl)imidazo[1,2-a]pyridin-3-yl]-6-methoxy-benzamide] had a half-maximal effective concentration (EC50) of 100 to 1000 nM. Besides, the concentration for half-maximal inhibition (IC50) is 10 to 100 nM in assay [2] and more than 500 nM in assay [3].
Take `CC[C@](C)(O)c1ccn2c(-c3cc(OC)c(C(=O)NC4CC4)c(OC(F)F)c3)cnc2c1` (single isomer, unassigned) [Cpd 165, N-cyclopropyl-2-(difluoromethoxy)-4-[7-(1-hydroxy-1-methyl-propyl)imidazo[1,2-a]pyridin-3-yl]-6-methoxy-benzamide]: the EC50 in assay [1] fell in the range of 100 to 1000 nM. Also, the IC50 was 10 to 100 nM in assay [2] (setting [4]) and more than 500 nM in assay [3] (setting [4]).
On to `COc1cc(-c2cnc3cc(C(C)(C)C#N)ccn23)cc(OC)c1C(=O)NC1CC1` [Cpd 28, 4-[7-(1-cyano-1-methyl-ethyl)imidazo[1,2-a]pyridin-3-yl]-N-cyclopropyl-2,6-dimethoxy-benzamide], for which, in assay [1] (Homo sapiens, Monocyte), the half-maximal effective concentration (EC50) is 100 to 1000 nM. Moreover, the concentration for half-maximal inhibition (IC50) is 10 to 100 nM in assay [2] and more than 500 nM in assay [3].
Compound `COc1cc(-c2cnc3cc(C4(C#N)CC4)ccn23)cc(OC(F)F)c1C(=O)NC1CC1` [Cpd 33, 4-[7-(1-cyanocyclopropyl)imidazo[1,2-a]pyridin-3-yl]-N-cyclopropyl-2-(difluoromethoxy)-6-methoxy-benzamide] came in with an EC50 in assay [1] (Homo sapiens, Monocyte) of 0.1 to 100 nM. Moreover, the figures for the IC50 in assay [2] and in assay [3] were 0.01 to 10 nM and 10 to 100 nM, respectively.
The matching figures for `COc1cc(-c2cnc3cc(C4CN(C(C)=O)C4)ccn23)cc(OC(F)F)c1C(=O)NC1CC1` [Cpd 63, 4-[7-(1-acetylazetidin-3-yl)imidazo[1,2-a]pyridin-3-yl]-N-cyclopropyl-2-(difluoromethoxy)-6-methoxy-benzamide]: 100 to 1000 nM, 0.01 to 10 nM and 10 to 100 nM.
For `COc1cc(-c2cnc3cc(C4CCCN(C(=O)OC(C)(C)C)C4)ccn23)cc(OC(F)F)c1C(=O)NC1CC1` (stereo not drawn) [Cpd 64, tert-butyl 3-[3-[4-(cyclopropylcarbamoyl)-3-(difluoromethoxy)-5-methoxy-phenyl]imidazo[1,2-a]pyridin-7-yl]piperidine-1-carboxylate], in that order: 100 to 1000 nM, 0.01 to 10 nM and 100 to 500 nM.
For `COc1cc(-c2cnc3cc(C(C)(C)C#N)ccn23)cc(OC(F)F)c1C(=O)N1CC(F)(F)C1` [Cpd 69, 2-[3-[4-(3,3-difluoroazetidine-1-carbonyl)-3-(difluoromethoxy)-5-methoxy-phenyl]imidazo[1,2-a]pyridin-7-yl]-2-methyl-propanenitrile], in that order: 100 to 1000 nM, 0.01 to 10 nM and more than 500 nM.
Compound `COc1cc(-c2cnc3cc(C(C)(C)C#N)ccn23)cc(OC(F)F)c1C(=O)NCC(F)F` [Cpd 70, 4-[7-(1-cyano-1-methyl-ethyl)imidazo[1,2-a]pyridin-3-yl]-N-(2,2-difluoroethyl)-2-(difluoromethoxy)-6-methoxy-benzamide] showed an EC50 in assay [1] (Homo sapiens, Monocyte) of 100 to 1000 nM. Besides, the IC50 is 0.01 to 10 nM in assay [2] and more than 500 nM in assay [3].
On to `COc1cc(-c2cnc3cc(C(C)(C)CN)ccn23)cc(OC(F)F)c1C(=O)NC1CC1` [Cpd 93, 4-[7-(2-amino-1,1-dimethyl-ethyl)imidazo[1,2-a]pyridin-3-yl]-N-cyclopropyl-2-(difluoromethoxy)-6-methoxy-benzamide], for which, in assay [1] (Homo sapiens, Monocyte), the EC50 fell in the range of 100 to 1000 nM. Further, the concentration for half-maximal inhibition (IC50) in assay [2] is 10 to 100 nM; in assay [3], more than 500 nM.
On to `COc1cc(-c2cnn3cc(C4CCOCC4)cnc23)cc(OC(F)F)c1C(=O)NC1CC1` [Cpd 95, N-cyclopropyl-2-(difluoromethoxy)-6-methoxy-4-(6-tetrahydropyran-4-ylpyrazolo[1,5-a]pyrimidin-3-yl)benzamide], for which the 50% effective concentration (EC50) in assay [1] (Homo sapiens, Monocyte) was in the range of 100 to 1000 nM. Further, the IC50 in assay [2] lay in the range of 0.01 to 10 nM; in assay [3], 100 to 500 nM.
For `COc1cc(-c2cnc3cc(C(C)(C)C#N)ccn23)cc(OC(F)F)c1C(=O)N1CC(F)C1` [Cpd 96, 2-[3-[3-(difluoromethoxy)-4-(3-fluoroazetidine-1-carbonyl)-5-methoxy-phenyl]imidazo[1,2-a]pyridin-7-yl]-2-methyl-propanenitrile], in that order: 100 to 1000 nM, 0.01 to 10 nM and more than 500 nM.
For `COc1cc(-c2cnc3cc(C(C)(C)N)ccn23)cc(OC(F)F)c1C(=O)NC1CC1` [Cpd 106, 4-[7-(1-amino-1-methyl-ethyl)imidazo[1,2-a]pyridin-3-yl]-N-cyclopropyl-2-(difluoromethoxy)-6-methoxy-benzamide], in that order: 100 to 1000 nM, 0.01 to 10 nM and more than 500 nM.
The matching figures for `COC(=O)C1(c2ccn3c(-c4cc(OC)c(C(=O)NC5CC5)c(OC(F)F)c4)cnc3c2)CC1` [Cpd 113, methyl 1-[3-[4-(cyclopropylcarbamoyl)-3-(difluoromethoxy)-5-methoxy-phenyl]imidazo[1,2-a]pyridin-7-yl]cyclopropanecarboxylate]: 100 to 1000 nM, 0.01 to 10 nM and more than 500 nM.
In assay [1] (Homo sapiens, Monocyte), `CCOC(C)(C)c1ccn2c(-c3cc(OC)c(C(=O)NC4CC4)c(OC(F)F)c3)cnc2c1` [Cpd 128, N-cyclopropyl-2-(difluoromethoxy)-4-[7-(1-ethoxy-1-methyl-ethyl)imidazo[1,2-a]pyridin-3-yl]-6-methoxy-benzamide] had an EC50 of 100 to 1000 nM. Besides, the half-maximal inhibitory concentration (IC50) is 10 to 100 nM in assay [2] and more than 500 nM in assay [3].
Take `COc1cc(-c2cnc3cc(C(C)(O)C4CC4)ccn23)cc(OC(F)F)c1C(=O)NC1CC1` (stereo not drawn) [Cpd 138, N-cyclopropyl-4-[7-(1-cyclopropyl-1-hydroxy-ethyl)imidazo[1,2-a]pyridin-3-yl]-2-(difluoromethoxy)-6-methoxy-benzamide]: in assay [1] (Homo sapiens, Monocyte), the half-maximal effective concentration (EC50) lay in the range of 100 to 1000 nM. Moreover, the IC50 in assay [2] is 10 to 100 nM; in assay [3], more than 500 nM.
In turn, `COc1cc(-c2cnc3cc(C(C)O)ccn23)cc(OC(F)F)c1C(=O)NC1CC1` (stereo not drawn) [Cpd 140, N-cyclopropyl-2-(difluoromethoxy)-4-[7-(1-hydroxyethyl)imidazo[1,2-a]pyridin-3-yl]-6-methoxy-benzamide] came in with an EC50 in assay [1] (Homo sapiens, Monocyte) of 100 to 1000 nM. In addition, the concentration for half-maximal inhibition (IC50) in assay [2] was 10 to 100 nM; in assay [3], 100 to 500 nM.
The matching figures for `COc1cc(-c2cnc3cc(C(C)N4CCCCC4)ccn23)cc(OC(F)F)c1C(=O)NC1CC1` (stereo not drawn) [Cpd 146, N-cyclopropyl-2-(difluoromethoxy)-6-methoxy-4-[7-[1-(1-piperidyl)ethyl]imidazo[1,2-a]pyridin-3-yl]benzamide]: 1000 to 5000 nM, 10 to 100 nM and more than 500 nM.
The matching figures for `COc1cc(-c2cnc3cc(C(C)(C)CN4CCOCC4)ccn23)cc(OC(F)F)c1C(=O)NC1CC1` [Cpd 160, N-cyclopropyl-2-(difluoromethoxy)-4-[7-(1,1-dimethyl-2-morpholino-ethyl)imidazo[1,2-a]pyridin-3-yl]-6-methoxy-benzamide]: 100 to 1000 nM, 10 to 100 nM and more than 500 nM.
In turn, `COc1cc(-c2cnc3cc(C4CCOCC4)c(F)cn23)cc(OC(F)F)c1C(=O)NC1CC1` [Cpd 166, N-cyclopropyl-2-(difluoromethoxy)-4-(6-fluoro-7-tetrahydropyran-4-yl-imidazo[1,2-a]pyridin-3-yl)-6-methoxy-benzamide] had an EC50 in assay [1] (Homo sapiens, Monocyte) of 100 to 1000 nM. Also, the values for the half-maximal inhibitory concentration (IC50) in assay [2] and in assay [3] were 0.01 to 10 nM and 100 to 500 nM, respectively.
For `COc1cc(-c2cnc3cc(C4COCCN4C)ccn23)cc(OC(F)F)c1C(=O)NC1CC1` (stereo not drawn) [Cpd 193, N-cyclopropyl-2-(difluoromethoxy)-6-methoxy-4-[7-(4-methylmorpholin-3-yl)imidazo[1,2-a]pyridin-3-yl]benzamide], in that order: 100 to 1000 nM, 10 to 100 nM and more than 500 nM.
The matching figures for `COc1cc(-c2cnn3cc(C4(C#N)CC4)ccc23)cc(OC(F)F)c1C(=O)N[C@@H]1C[C@@H]1F` [Cpd 235, 4-[6-(1-cyanocyclopropyl)pyrazolo[1,5-a]pyridin-3-yl]-2-(difluoromethoxy)-N-[(1R,2S)-2-fluorocyclopropyl]-6-methoxy-benzamide]: 0.1 to 100 nM, 0.01 to 10 nM and 10 to 100 nM.
